Data published in the supplement of paper PMC10307832.

Key:
Experiment in all cases: relative viability (nuclei count vs DMSO), 5 days (fraction); higher = more cells survive
[1] = compound: Cc1ccc(C(=O)N(CCCN)[C@@H](c2nc3cc(Cl)ccc3c(=O)n2Cc2ccccc2)C(C)C)cc1 [Ispinesib] + COc1cccc2cc(-c3nc([C@H]4CC[C@H](C(=O)O)CC4)n4ncnc(N)c34)[nH]c12 [OSI-027] (partner 0.5 µM)
Procedure, shortened: (§1)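 Dosing by pin tool came one day after lung cancer cell lines were seeded in 1536-well plates, using either one drug or a fixed anchor-drug dose plus five library-drug doses (not always all listed) in √10 steps. After 5 days, nuclei were counted on 4× images. Relative viability is treated-well nuclei count divided by vehicle-well nuclei count, and values are medians of duplicate plates.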

[2] = compound: C[C@]1(O)C[C@@H](c2nc(-c3ccc4ccc(-c5ccccc5)nc4c3)c3c(N)nccn32)C1 [Linsitinib] + Nc1nc2[nH]cc(CCc3ccc(C(=O)N[C@@H](CCC(=O)O)C(=O)O)cc3)c2c(=O)[nH]1 [Pemetrexed] (partner 0.2 µM)
Procedure, shortened: as §1

[3] = compound: C[C@]1(O)C[C@@H](c2nc(-c3ccc4ccc(-c5ccccc5)nc4c3)c3c(N)nccn32)C1 [Linsitinib] + CS(=O)(=O)CCNCc1ccc(-c2ccc3ncnc(Nc4ccc(OCc5cccc(F)c5)c(Cl)c4)c3c2)o1 [Lapatinib] (partner 2 µM)
Procedure, shortened: as §1

[4] = compound: Cc1ccc(C(=O)N(CCCN)[C@@H](c2nc3cc(Cl)ccc3c(=O)n2Cc2ccccc2)C(C)C)cc1 [Ispinesib] + N=C(N)NC(=N)NCCc1ccccc1 [Phenformin] (partner 250 µM)
Procedure, shortened: as §1

Cell Line	relative viability ([1]; first compound 0.001 µM)	relative viability ([1]; first compound 0.003162 µM)	relative viability ([1]; first compound 0.01 µM)	relative viability ([1]; first compound 0.03162 µM)	relative viability ([1]; first compound 0.1 µM)	relative viability ([2]; first compound 0.01 µM)	relative viability ([2]; first compound 0.03162 µM)	relative viability ([2]; first compound 0.1 µM)	relative viability ([2]; first compound 1 µM)	relative viability ([3]; first compound 0.01 µM)	relative viability ([3]; first compound 0.03162 µM)	relative viability ([3]; first compound 0.1 µM)	relative viability ([3]; first compound 0.3162 µM)	relative viability ([3]; first compound 1 µM)	relative viability ([4]; first compound 0.001 µM)	relative viability ([4]; first compound 0.003162 µM)	relative viability ([4]; first compound 0.01 µM)	relative viability ([4]; first compound 0.03162 µM)	relative viability ([4]; first compound 0.1 µM)	relative viability ([2]; first compound 0.3162 µM)
LU99A	0.268	0.294	0.299	0.264	0.189	0.161	0.144	0.193	0.198	0.953	0.951	0.952	0.377	0.57	0.892	0.837	0.965	0.373	0.235	
SW 1573	0.622	0.645	0.526	0.162	0.186	0.912	0.676	0.921	0.732	1.18	1.3	1.05	0.939	0.933	0.373	0.369	0.426	0.145	0.141	0.828
COR-L23	0.808	0.918	0.931	0.357	0.214	0.202	0.184	0.189	0.18	0.798	0.916	1.16	0.825	0.944	0.437	0.444	0.448	0.123	0.133	0.184
NCI-H1755	0.665	0.791	0.859	0.57	0.321	0.388	0.401	0.653	0.398	1.01	1.02	1.04	0.54	0.876	0.553	0.646	0.638	0.463	0.195	0.234
LOU-NH91	0.72	0.776	0.83	0.59	0.236	0.405	0.345	0.394	0.392	0.698	0.655	0.706	0.741	0.579	0.708	0.753	0.774	0.563	0.262	0.357
EMC-BAC-2	0.388	0.402	0.356	0.25	0.309	0.397	0.394	0.447	0.432	0.914	0.893	0.806	0.686	0.694	0.557	0.545	0.534	0.372	0.209	0.448
NCI-H2023	0.467	0.421	0.404	0.163	0.143	0.257	0.134	0.238	0.176	0.821	0.411	0.895	0.0717	0.408	0.484	0.479	0.384	0.187	0.154	0.0952
EKVX	0.731	0.75	0.777	0.75	0.634		0.243	0.425	0.36	0.212	0.262	0.231	0.23	0.161	0.24	0.244	0.243	0.238	0.152	0.352
NCI-H2085	0.815	0.715	0.824	0.541	0.264	0.887	0.887	0.934	0.905	0.701	0.822	0.822	0.753	0.658	0.751	0.692	0.75	0.474	0.278	0.928
NCI-H3122	1.07	1.38	1.06	0.218	0.14	0.18	0.177	0.212	0.196	1.04	1.06	0.982	0.737	1.12	0.384	0.408	0.856	0.197	0.108	0.184
HCC-827	0.653	0.801	0.887	0.664	0.437	0.149	0.24	0.32	0.262	0.208	0.197	0.17		0.224	0.424	0.432	0.457	0.332	0.257	
HARA	0.641	0.553	0.535	0.0672	0.0972	0.258	0.198	0.22	0.239	0.598	0.746	0.739	0.671	0.329	0.492	0.509	0.614	0.343	0.113	
SK-MES-1	0.732	0.601	0.628	0.182	0.229	0.991	0.795	0.958	0.753	0.434	0.456	0.467	0.462	0.435	0.753	0.714	0.761	0.193	0.186	0.784
HCC-15	0.773	0.715	0.771	0.203	0.178	0.215	0.199	0.209	0.213	0.919	0.807	0.883	0.2	0.612	0.567	0.48	0.487	0.19	0.184	0.191
EPLC-272H	0.242	0.281	0.238	0.167	0.152	0.366	0.193	0.325	0.32	0.977	0.948	0.999		0.736	0.317	0.283	0.262	0.217	0.145	0.244
NCI-H2009	0.702	0.695	0.618	0.212	0.211	1.15	0.944	1.09	0.942	0.945	0.878	0.997	0.148	0.963	0.519	0.512	0.451	0.312	0.186	0.946
